Data reported in article PMC8212425 (Translational Vision Science & Technology, 2021).
Read-outs that look alike come from different tables or passages of the source.

Legend:
[1] = format: in vivo, New Zealand White rabbits; conditions: for Plasma concentration / AUC(0-t): 1 mg/eye; for Plasma concentration: below LOQ; for Cmax / Tmax: New Zealand White, rabbit, 1 mg; for AUC(0-t): NZW rabbits
[2] = format: in vivo, rabbits; conditions: rabbit, RCS, sc, 1.05 mg/eye
[3] = format: in vivo, Dutch Belted rabbits; conditions: for Cmax / Tmax: 4 mg; for AUC(0-t): DB rabbits, 91 days
[4] = format: in vivo, Dutch Belted rabbits; conditions: for Tmax / Cmax / half-life: Dutch Belted, rabbit, sc; for AUC(0-t): DB rabbits
[5] = vitreous humor, topical or ocular
[6] = Dutch Belted, rabbit, RPE-choroid-sclera complex (RCS), sc
[7] = Dutch Belted, rabbit, vitreous humor, sc
[8] = SC, 4 mg/eye, throughout 91-day study, not detected/quantifiable, LOQ
[9] = RPE-choroid-sclera complex (RCS), 0.03 mg
[10] = RPE-choroid-sclera complex (RCS), 0.1 mg
[11] = SC, 0.03 and 0.10 mg/eye, 10-week study
[12] = SC, 0.03 and 0.1 mg/eye, any timepoint, not quantifiable, LOQ

Plasma concentration ([1]; IVT, all timepoints): < 0.150 ng/mL | Cmax ([1]; posterior eye cup (PEC), sc): 799000 ng/g | Tmax ([1]; posterior eye cup (PEC), sc): 6 h | Cmax ([1]; posterior eye cup (PEC), topical or ocular): 124000 ng/g | Cmax ([1]; vitreous humor, sc): 3670 ng/g | Tmax ([1]; vitreous humor, sc): 168 h | Cmax [1, 5]: 1.28e+06 ng/g | Tmax [1, 5]: 0.08 h | AUC(0-t) ([1]; PEC (posterior eye cup), SC injection): 5208 µg·days/g | AUC(0-t) ([1]; PEC, IVT injection): 471 µg·days/g | Plasma concentration ([1]; SC, all timepoints except 6 hours): < 0.150 ng/mL | AUC(0-t) ([1]; vitreous humor, IVT injection): 6208 µg·days/g | AUC(0-t) ([1]; vitreous humor, SC injection): 19 µg·days/g | concentration at 182 day [2]: 199000 ng/g | Cmax [3, 6]: 2.2e+07 ng/g | Tmax [3, 6]: 96 h | half-life ([3]; Dutch Belted, rabbit, RPE-choroid-sclera complex (RCS), sc, 4 mg/eye): 143 days | Cmax ([3]; Dutch Belted, rabbit, retina, sc): 325000 ng/g | concentration at 91 day ([3]; Dutch Belted, rabbit, retina, sc, 4 mg/eye): 305000 ng/g | Cmax [3, 7]: 858 ng/mL | Tmax [3, 7]: 96 h | AUC(0-t) ([3]; RCS (RPE-choroid-sclera, dose depot), SC, 4 mg/eye): 1,260,000 µg·d/g | Aqueous humor concentration [3, 8]: < 1 ng/mL | Plasma concentration [3, 8]: < 0.15 ng/mL | Vitreous humor level lower than that of RCS and retina ([3]; SC, 4 mg/eye, density of vitreous humor assumed 1): 3 to 4 log orders | AUC(0-t) ([3]; vitreous humor, SC, 4 mg/eye): 31.1 µg·d/g or µg*d/mL | Tmax ([4]; RPE-choroid-sclera complex (RCS)): 24 h | Cmax [4, 9]: 37200 ng/g | Tmax [4, 9]: 24 h | half-life [4, 9]: 264 h | Cmax [4, 10]: 232000 ng/g | Tmax [4, 10]: 24 h | half-life [4, 10]: 384 h | Cmax ([4]; retina, 0.03 mg): 4480 ng/g | Tmax ([4]; retina, 0.03 mg): 24 h | Cmax ([4]; retina, 0.1 mg): 6260 ng/g | Tmax ([4]; retina, 0.1 mg): 24 h | Cmax ([4]; vitreous humor, 0.03 mg): 4.01 ng/mL | Tmax ([4]; vitreous humor, 0.03 mg): 24 h | Cmax ([4]; vitreous humor, 0.1 mg): 4.58 ng/mL | Tmax ([4]; vitreous humor, 0.1 mg): 24 h | AUC(0-t) ([4]; RCS, SC, 0.03 mg/eye): 338 µg·days/g | AUC(0-t) ([4]; RCS, SC, 0.1 mg/eye): 2320 µg·days/g | Mean AUC0-∞ after 0.10 mg dose versus 0.03 mg dose ([4]; RCS, SC, dose ratio 3.33): ~7 fold | Mean Cmax after 0.10 mg dose versus 0.03 mg dose ([4]; RCS, SC, dose ratio 3.33): approximately 6 fold | RCS (dose depot) level higher than retina [4, 11]: 1 to 2 orders of magnitude | Retina level higher than vitreous humor [4, 11]: 3 to 4 orders of magnitude | Aqueous humor concentration [4, 12]: < 1 ng/mL | Plasma concentration [4, 12]: < 0.15 ng/mL | AUC(0-t) ([4]; retina, SC, 0.03 mg/eye): 17.3 µg·days/g | AUC(0-t) ([4]; retina, SC, 0.1 mg/eye): 28.1 µg·days/g
Structure (SMILES): CNC(=O)c1ccccc1Sc1ccc2c(/C=C/c3ccccn3)n[nH]c2c1 [Axitinib]
